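Dose response: 5 concentrations. Exposure: 48 h. Format: 96-well plates. Endpoint: linear interpolation; highest concentration if not reached. GI50 is the concentration that inhibits growth by half.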 The source made the active and inactive calls. Cut-off read from the data, not from the text of the source: active = GI50 up to about 1.1 µM and inactive = higher.
Tests used:
Assay in all cases: NCI tumour cell line growth inhibition, 48 h
OVCAR-3 = tested on: OVCAR-3
K562 = tested on: K562
IGROV-1 = tested on: IGROV-1
MOLT-4 = tested on: MOLT-4
A498 = tested on: A498
M14 = tested on: M14
NCI-H226 = tested on: NCI-H226
UO-31 = tested on: UO-31
KM12 = tested on: KM12
786-0 = tested on: 786-0
NCI-H23 = tested on: NCI-H23
SW-620 = tested on: SW-620
Malme-3M = tested on: Malme-3M
LOX IMVI = tested on: LOX IMVI
HL-60 = tested on: HL-60
HOP-92 = tested on: HOP-92

Measured: GI50

C/C(=N\NC(=O)CC(=O)N(C(=O)c1ccc(Cl)cc1)c1ccc(C)cc1)c1ccccc1O
inactive: OVCAR-3 14 µM | K562 > 100 µM | IGROV-1 > 100 µM | MOLT-4 5.79 µM | A498 73.6 µM | M14 81.7 µM | NCI-H226 77.6 µM | UO-31 4.82 µM | KM12 9.68 µM | 786-0 13.4 µM | NCI-H23 > 100 µM | SW-620 > 100 µM | Malme-3M > 100 µM

COc1cc(C(C)O)c[n+](CCc2c[nH]c3ccccc23)c1 (configuration not stated)
inactive: LOX IMVI > 100 µM | OVCAR-3 66.5 µM | K562 > 100 µM | IGROV-1 > 100 µM | HL-60 > 100 µM | MOLT-4 > 100 µM | A498 > 100 µM | M14 > 100 µM | UO-31 > 100 µM | KM12 > 100 µM | 786-0 > 100 µM | NCI-H23 > 100 µM | SW-620 > 100 µM | Malme-3M > 100 µM

NC1=NN(c2ccccc2)C(=O)C1C(=O)C(=O)NC1C2CC3CC(C2)CC1C3 (configuration not stated)
inactive: LOX IMVI > 100 µM | OVCAR-3 > 100 µM | K562 > 100 µM | IGROV-1 > 100 µM | HL-60 > 100 µM | MOLT-4 > 100 µM | HOP-92 > 100 µM | M14 > 100 µM | NCI-H226 > 100 µM | UO-31 > 100 µM | KM12 > 100 µM | 786-0 > 100 µM | NCI-H23 > 100 µM | SW-620 > 100 µM | Malme-3M > 100 µM

CC(=O)/C(=C\c1ccccc1O)C(=O)Nc1ccccc1C
inactive: LOX IMVI 14.3 µM | OVCAR-3 25.7 µM | K562 4.06 µM | IGROV-1 25.9 µM | HL-60 9.64 µM | MOLT-4 9.84 µM | HOP-92 15.9 µM | M14 17.5 µM | NCI-H226 27.4 µM | UO-31 16 µM | KM12 17.2 µM | 786-0 15.4 µM | NCI-H23 17.7 µM | SW-620 20.7 µM | Malme-3M 17.5 µM

Cn1c(=O)c(C(=O)NC(=O)OCc2ccccc2)cn(CCSCCOC(=O)NCCCCCCNC(=O)OCCSCCn2cc(C(=O)NC(=O)OCc3ccccc3)c(=O)n(C)c2=O)c1=O
inactive: LOX IMVI > 100 µM | K562 > 100 µM | IGROV-1 > 100 µM | HL-60 > 100 µM | MOLT-4 > 100 µM | A498 > 100 µM | HOP-92 23.2 µM | M14 > 100 µM | NCI-H226 > 100 µM | UO-31 74.6 µM | 786-0 83.9 µM | NCI-H23 > 100 µM | SW-620 > 100 µM | Malme-3M > 100 µM

COC1CC(Br)(C#N)C1 (configuration not stated)
inactive: OVCAR-3 > 100 µM | K562 > 100 µM | IGROV-1 > 100 µM | HL-60 > 100 µM | MOLT-4 52 µM | HOP-92 > 100 µM | M14 > 100 µM | UO-31 > 100 µM | KM12 > 100 µM | 786-0 > 100 µM | NCI-H23 > 100 µM | Malme-3M > 100 µM

O=C(NO)c1ccc([N+](=O)[O-])cc1
inactive: LOX IMVI 40.8 µM | OVCAR-3 44.7 µM | K562 31 µM | IGROV-1 49.9 µM | HL-60 20.7 µM | MOLT-4 25.8 µM | A498 21.9 µM | M14 40.9 µM | NCI-H226 39.5 µM | UO-31 24.8 µM | KM12 64.9 µM | 786-0 > 100 µM | NCI-H23 36.6 µM | SW-620 50.8 µM | Malme-3M 26.9 µM

Cc1ccc(N2C(=O)C(Cl)=C(Cl)C2=O)cc1
inactive: LOX IMVI 23.6 µM | OVCAR-3 16.9 µM | K562 18.7 µM | IGROV-1 20.8 µM | MOLT-4 16.4 µM | A498 > 100 µM | HOP-92 18.2 µM | M14 19.2 µM | NCI-H226 > 100 µM | UO-31 31.7 µM | KM12 20.5 µM | 786-0 17.3 µM | NCI-H23 20.7 µM | SW-620 19.7 µM | Malme-3M 18.7 µM

COc1cc(/C=C(\NC(=O)c2ccccc2)c2nc3ccc4c(c3[nH]2)C(=O)c2ccccc2C4=O)cc(OC)c1OC
inactive: LOX IMVI 20.3 µM | OVCAR-3 38.1 µM | K562 28 µM | IGROV-1 10.7 µM | MOLT-4 2.52 µM | A498 13.1 µM | HOP-92 25.4 µM | M14 63.1 µM | NCI-H226 > 100 µM | UO-31 2.36 µM | KM12 8.05 µM | 786-0 28.2 µM | NCI-H23 55.6 µM | SW-620 38.3 µM | Malme-3M > 100 µM

N#Cc1ccc(C2SCc3nc4ccccc4n32)cc1 (configuration not stated)
inactive: OVCAR-3 > 100 µM | K562 41.6 µM | IGROV-1 79.4 µM | HL-60 31.3 µM | MOLT-4 63.1 µM | A498 58.7 µM | M14 54.2 µM | UO-31 15.2 µM | KM12 > 100 µM | 786-0 > 100 µM | NCI-H23 25.6 µM | SW-620 > 100 µM | Malme-3M > 100 µM

COc1ccc(/C=C2\C(=O)N(C(=O)c3ccc(NC(C)=O)cc3)N=C2C)cc1
inactive: LOX IMVI > 100 µM | OVCAR-3 > 100 µM | K562 > 100 µM | HL-60 > 100 µM | MOLT-4 > 100 µM | M14 > 100 µM | NCI-H226 > 100 µM | UO-31 > 100 µM | KM12 > 100 µM | 786-0 > 100 µM | NCI-H23 > 100 µM | SW-620 > 100 µM | Malme-3M > 100 µM

CN(C)Cc1[nH]c2ccccc2c1C(=O)c1ccccc1
inactive: OVCAR-3 > 100 µM | K562 91.6 µM | IGROV-1 > 100 µM | HL-60 86.9 µM | MOLT-4 > 100 µM | HOP-92 33 µM | M14 > 100 µM | NCI-H226 > 100 µM | UO-31 31.6 µM | KM12 > 100 µM | 786-0 > 100 µM | NCI-H23 > 100 µM | SW-620 > 100 µM | Malme-3M > 100 µM

CC(=O)SCCC1c2[nH]c3ccccc3c2CCN1O (configuration not stated)
inactive: LOX IMVI 49 µM | OVCAR-3 > 100 µM | K562 32.4 µM | IGROV-1 > 100 µM | HL-60 36.6 µM | MOLT-4 40.6 µM | HOP-92 26.7 µM | M14 > 100 µM | UO-31 > 100 µM | KM12 68.9 µM | 786-0 > 100 µM | NCI-H23 > 100 µM | SW-620 28.1 µM | Malme-3M > 100 µM

Cc1ccc(S(=O)(=O)N(C=O)N=C2CCN(Cc3ccccc3)CC2)cc1
inactive: LOX IMVI > 100 µM | OVCAR-3 > 100 µM | K562 > 100 µM | IGROV-1 > 100 µM | HL-60 > 100 µM | MOLT-4 > 100 µM | A498 > 100 µM | M14 > 100 µM | NCI-H226 > 100 µM | UO-31 > 100 µM | KM12 > 100 µM | 786-0 > 100 µM | NCI-H23 > 100 µM | SW-620 > 100 µM | Malme-3M > 100 µM

From ChEMBL document CHEMBL1201862, “PubChem BioAssay data set” (2004)
